In patent US9533987B2, “Heterocyclic derivates” (KALVISTA PHARMACEUTICALS LIMITED, priority 2013, dated 2017):

Columns and labels:
diabetic rats = details: cited from earlier work
[1] = in vivo; cited from earlier work
Human plasma kallikrein = Human plasma kallikrein (Homo sapiens (Human), UniProt P03952); test: Determination of the IC50 for plasma kallikrein (fluorogenic substrate H-DPro-Phe-Arg-AFC); assay type: biochemical; details: 37° C., read-out: IC50 (human PKaI)
Experimental: Determination of the IC50 for Plasma Kallikrein
(§1) Human plasma kallikrein (Protogen) was incubated at 37° C. with the fluorogenic substrate H-DPro-Phe-Arg-AFC and various concentrations of the test compound. Residual enzyme activity (initial rate of reaction) was determined by measuring the change in […] at 410 nm and the IC50 value for the test compound was determined.

Human KLK1 = Human KLK1 (Homo sapiens (Human), UniProt P06870); test: Determination of the IC50 for KLK1 (fluorogenic substrate H-DVal-Leu-Arg-AFC); assay type: biochemical; details: 37° C.
Sequence of Human KLK1 (P06870 25-262): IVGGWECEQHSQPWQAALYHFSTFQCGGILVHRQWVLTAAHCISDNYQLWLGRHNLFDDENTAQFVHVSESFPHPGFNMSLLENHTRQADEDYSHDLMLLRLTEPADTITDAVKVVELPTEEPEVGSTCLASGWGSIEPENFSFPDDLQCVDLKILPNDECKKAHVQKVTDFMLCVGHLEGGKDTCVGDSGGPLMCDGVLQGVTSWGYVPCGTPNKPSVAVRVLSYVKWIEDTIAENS
Experimental: Determination of the IC50 for KLK1
as §1, with “KLK1 (Callbiochem)” for “plasma kallikrein (Protogen)”, “H-DVal-Leu-Arg-AFC” for “H-DPro-Phe-Arg-AFC”

Factor XIIa = Factor XIIa (Homo sapiens (Human), UniProt P00748); test: Determination of enzyme selectivity, Factor XIIa; assay type: biochemical; details: substrate at Km concentration
Sequence of Factor XIIa (P00748 373-615): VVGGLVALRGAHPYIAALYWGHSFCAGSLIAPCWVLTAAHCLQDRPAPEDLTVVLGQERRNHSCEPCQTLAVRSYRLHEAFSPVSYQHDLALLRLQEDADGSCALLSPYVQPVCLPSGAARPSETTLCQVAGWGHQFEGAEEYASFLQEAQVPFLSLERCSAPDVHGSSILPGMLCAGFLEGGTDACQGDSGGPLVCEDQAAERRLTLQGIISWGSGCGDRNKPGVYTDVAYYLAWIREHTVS
Experimental: (§2) Determination of Enzyme Selectivity
(§3) Human serine protease enzymes plasmin, thrombin, trypsin, Factor Xa and Factor XIIa were assayed for enzymatic activity using an appropriate fluorogenic substrate. Protease activity was measured by monitoring the accumulation of liberated fluorescence from the substrate over 5 minutes. The linear rate of fluorescence increase per minute was expressed as percentage (%) activity. The Km for the cleavage of each substrate was determined by standard transformation of the Michaelis-Menten equation.

thrombin = thrombin (Homo sapiens (Human), UniProt P00734); test: Determination of enzyme selectivity, thrombin; assay type: biochemical; details: substrate at Km concentration
Experimental: as §2, §3

trypsin = test: Determination of enzyme selectivity, trypsin; assay type: biochemical, human; details: substrate at Km concentration
Experimental: as §2, §3

plasmin = plasmin (Homo sapiens (Human), UniProt P00747); test: Determination of enzyme selectivity, plasmin; assay type: biochemical; details: substrate at Km concentration
Sequence of plasmin (P00747 581-810): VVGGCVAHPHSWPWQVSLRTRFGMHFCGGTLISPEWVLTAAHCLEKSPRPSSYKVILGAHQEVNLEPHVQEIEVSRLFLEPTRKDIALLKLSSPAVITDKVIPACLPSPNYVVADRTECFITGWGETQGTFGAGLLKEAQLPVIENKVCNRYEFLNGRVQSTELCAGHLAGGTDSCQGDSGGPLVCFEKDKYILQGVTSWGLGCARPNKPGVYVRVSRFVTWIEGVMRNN
Sequence of plasmin (P00747 97-580 partner): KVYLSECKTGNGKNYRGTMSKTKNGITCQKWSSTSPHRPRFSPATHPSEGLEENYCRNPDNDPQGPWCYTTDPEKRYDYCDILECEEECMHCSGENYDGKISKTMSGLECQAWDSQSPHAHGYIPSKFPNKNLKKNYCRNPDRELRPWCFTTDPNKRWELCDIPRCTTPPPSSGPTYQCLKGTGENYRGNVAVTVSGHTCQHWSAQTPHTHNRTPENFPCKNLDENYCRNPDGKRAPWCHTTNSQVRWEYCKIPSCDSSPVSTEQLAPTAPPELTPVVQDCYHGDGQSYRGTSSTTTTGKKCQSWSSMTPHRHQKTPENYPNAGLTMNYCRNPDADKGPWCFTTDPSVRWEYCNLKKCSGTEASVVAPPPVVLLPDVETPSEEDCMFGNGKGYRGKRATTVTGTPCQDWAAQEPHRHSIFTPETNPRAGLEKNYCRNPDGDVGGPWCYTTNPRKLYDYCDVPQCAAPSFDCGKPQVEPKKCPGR
Experimental: as §2, §3

[2] = Pharmacokinetics following a single oral dose in male Sprague-Dawley rats; assay type: in vivo; details: rat, plasma
Experimental: Pharmacokinetic studies of the compounds in Table 16 were performed to assess the pharmacokinetics following a single oral dose in male Sprague-Dawley rats. […] Following dosing, blood samples were collected over a period of 24 hours. Sample times were 5, 15 and 30 minutes then 1, 2, 4, 6, 8, 12 and 24 hours. Following collection, blood samples were centrifuged and the plasma fraction analysed for concentration of test compound by LCMS.

[3] = in vivo; cited from earlier work; remark: listed apart in the source

Sequence of Human plasma kallikrein (P03952 391-638): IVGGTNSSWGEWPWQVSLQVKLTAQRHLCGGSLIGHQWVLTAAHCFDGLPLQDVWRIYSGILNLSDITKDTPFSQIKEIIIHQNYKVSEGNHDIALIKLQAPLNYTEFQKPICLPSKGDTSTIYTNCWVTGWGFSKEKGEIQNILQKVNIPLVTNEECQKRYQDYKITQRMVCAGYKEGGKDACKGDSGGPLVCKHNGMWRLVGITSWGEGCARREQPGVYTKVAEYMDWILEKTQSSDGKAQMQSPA
Sequence of Human plasma kallikrein (P03952 20-390 partner): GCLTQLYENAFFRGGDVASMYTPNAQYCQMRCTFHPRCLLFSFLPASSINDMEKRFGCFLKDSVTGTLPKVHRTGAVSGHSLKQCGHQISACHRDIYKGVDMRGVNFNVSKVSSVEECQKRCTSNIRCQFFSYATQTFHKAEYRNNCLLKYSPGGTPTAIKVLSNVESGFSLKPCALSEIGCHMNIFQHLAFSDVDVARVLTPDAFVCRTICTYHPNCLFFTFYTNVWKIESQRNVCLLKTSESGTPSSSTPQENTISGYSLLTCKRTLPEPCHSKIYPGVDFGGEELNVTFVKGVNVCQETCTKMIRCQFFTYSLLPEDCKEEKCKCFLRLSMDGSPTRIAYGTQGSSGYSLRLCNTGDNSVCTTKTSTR

| IC50 (Human plasma kallikrein) | IC50 (Human KLK1) | IC50 (Factor XIIa) | Cmax ([2]; single po dose 10 mg/kg) | Tmax ([2]; single po dose 10 mg/kg) | Compound | further results |
| --- | --- | --- | --- | --- | --- | --- |
|  |  |  |  |  | N=C(N)c1ccc(CNC(=O)c2cnn(Cc3ccccc3)c2)cc1 [ASP-440] | effect on retinal vascular permeability and retinal blood flow abnormalities (diabetic rats): ameliorated both retinal vascular permeability and retinal blood flow abnormalities; oral availability [1]: poor oral availability |
| 0.0547 µM | > 10 µM | > 10000 nM |  |  | Cc1cc(C(=O)NCc2ccc3c(N)nccc3c2)c(C)n1Cc1csc(-c2ccccc2)n1 [Example 1, 2,5-Dimethyl-1-(2-phenyl-thiazol-4-ylmethyl)-1H-pyrrole-3-carboxylic acid (1-amino-isoquinolin-6-ylmethyl)-amide] | IC50 (thrombin): > 40000 nM; IC50 (trypsin): > 40000 nM; IC50 (plasmin): > 40000 nM |
| 0.00189 µM | 8.86 µM | > 10000 nM | 134 ng/mL | 23 min | Cc1cnn(Cc2ccc(Cn3cc(C(=O)NCc4ccc5c(N)nccc5c4)c(C)n3)cc2)c1 [Example 11, 3-Methyl-1-[4-(4-methyl-pyrazol-1-ylmethyl)-benzyl]-1H-pyrazole-4-carboxylic acid (1-amino-isoquinolin-6-ylmethyl)-amide] |  |
| 0.00258 µM | 6.06 µM | > 10000 nM | 155 ng/mL | 30 min | Cc1cnn(Cc2ccc(Cn3cc(C(=O)NCc4ccc5c(N)nccc5c4)c(C4CC4)n3)cc2)c1 [Example 12, 3-Cyclopropyl-1-[4-(4-methyl-pyrazol-1-ylmethyl)-benzyl]-1H-pyrazole-4-carboxylic acid (1-amino-isoquinolin-6-ylmethyl)-amide] |  |
| 0.00966 µM | > 4 µM | > 1000 nM |  |  | Nc1nccc2cc(CNC(=O)c3cn(Cc4ccc(N5CCCC5)nc4)nc3C(F)(F)F)ccc12 [Example 24, 1-(6-Pyrrolidin-1-yl-pyridin-3-ylmethyl)-3-trifluoromethyl-1H-pyrazole-4-carboxylic acid (1-amino-isoquinolin-6-ylmethyl)-amide] | Cmax ([2]; single po dose 4 mg/kg): 97 ng/mL; Tmax ([2]; single po dose 4 mg/kg): 420 min |
| 0.00216 µM | > 40 µM | > 10000 nM | 642 ng/mL | 75 min | Cc1cnn(Cc2ccc(Cn3cc(C(=O)NCc4ccc5c(N)nccc5c4)c(C(F)(F)F)n3)cc2)c1 [Example 36, 1-[4-(4-Methyl-pyrazol-1-ylmethyl)-benzyl]-3-trifluoromethyl-1H-pyrazole-4-carboxylic acid (1-amino-isoquinolin-6-ylmethyl)-amide] |  |
| 0.078 µM | > 10 µM | > 10000 nM | 98 ng/mL | 45 min | Cc1cnn(Cc2ccc(Cn3cc(C(=O)NCc4cnc5[nH]ccc5c4)cn3)cc2)c1 [Example 117, 1-[4-(4-Methyl-pyrazol-1-ylmethyl)-benzyl]-1H-pyrazole-4-carboxylic acid (1H-pyrrolo[2,3-b]pyridin-5-ylmethyl)-amide] |  |
| 0.118 µM | > 10 µM | > 10000 nM |  |  | Cc1cnn(Cc2ccc(Cn3cc(C(=O)NCc4cnc5[nH]ccc5c4)c(C4CC4)n3)cc2)c1 [Example 120, 3-Cyclopropyl-1-[4-(4-methyl-pyrazol-1-ylmethyl)-benzyl]-1H-pyrazole-4-carboxylic acid (1H-pyrrolo[2,3-b]pyridin-5-ylmethyl)-amide] |  |
| 0.545 µM | > 10 µM | > 10000 nM |  |  | Cc1cnn(Cc2ccc(Cn3cc(C(=O)NCc4cccc5[nH]ccc45)c(C(F)(F)F)n3)cc2)c1 [Example 123, 1-[4-(4-Methyl-pyrazol-1-ylmethyl)-benzyl]-3-trifluoromethyl-1H-pyrazole-4-carboxylic acid (1H-indol-4-ylmethyl)-amide] |  |
| 0.146 µM | 7.23 µM | > 10000 nM |  |  | Cc1cnn(Cc2ccc(Cn3cc(C(=O)NCc4cccc5[nH]ncc45)c(C(F)(F)F)n3)cc2)c1 [Example 124, 1-[4-(4-Methyl-pyrazol-1-ylmethyl)-benzyl]-3-trifluoromethyl-1H-pyrazole-4-carboxylic acid (1H-indazol-4-ylmethyl)-amide] |  |
| 0.0229 µM | > 10 µM | > 10000 nM | 56 ng/mL | 30 min | O=C(NCc1cccc2[nH]ncc12)c1cn(Cc2ccc(Cn3ccccc3=O)cc2)nc1C(F)(F)F [Example 126, 1-[4-(2-Oxo-2H-pyridin-1-ylmethyl)-benzyl]-3-trifluoromethyl-1H-pyrazole-4-carboxylic acid (1H-indazol-4-ylmethyl)-amide] |  |
|  |  |  |  |  | Ecallantide | anaphylactic reactions [3]: anaphylactic reactions |
